Results taken from US8067616B2 (Nereus Pharmaceuticals, Inc., priority 2006, dated 2011).

Key:
[1] = system: chymotrypsin-like activity of the 20S proteasome in RPMI 8226 cells; assay: Chymotrypsin-like activity of proteasomes in RPMI 8226 cells after 1 hr exposure, measured in cell lysates (Suc-LLVY-AMC); assay type: cell-based, human; details: for % inhibition of the 20S proteasome chymotrypsin-like activity in RPMI 8826 cells: 1 hr incubation
Description: RPMI 8226 (ATCC, CCL-155), the human multiple myeloma cell line, was cultured in RPMI 1640 medium supplemented with 2 mM L-Glutamine, 1% Penicillin/Streptomycin, 10 mM HEPES and 10% Fetal Bovine Serum at 37° C., 5% CO2 and 95% humidified air. To evaluate the inhibitory effects on the chymotrypsin-like activity of the 20S proteasome, test compounds prepared in DMSO were appropriately diluted in culture medium and added to 1×10^6/ml RMPI 8226 cells at final concentration of 1, 5 or 10 nM. DMSO was used as the vehicle control at a final concentration of 0.1%. Following 1 hr incubation of RMPI 8226 cells with the compounds, the cells were pelleted by centrifugation at 2,000 rpm for 10 sec at room temperature and washed 3× with ice-cold 1× Dubach's Phosphate-Buffered Saline (DPBS, Mediatech, Herndon, Va.). DPBS washed cells were lysed on ice for 15 min in lysis buffer (20 mM HEPES, 0.5 mM EDTA, 0.05% Triton X-100, pH 7.3) supplemented with protease inhibitor cocktail (Roche Diagnostics, Indianapolis, Ind.). Cell debris was pelleted by centrifugation at 14,000 rpm for 10 min, 4° C. and supernatants (=cell lysates) were transferred to a new tube. Protein concentration was determined by the BCA protein assay kit (Pierce Biotechnology, Rockford, Ill.). […] The reactions were initiated by the addition of 10 μL of 0.4 mM Suc-LLVY-AMC (prepared by diluting a 10 mM solution of the peptide in DMSO 1:25 with assay buffer) to 190 μL of the cell lysates in 96-well Costar microtiter plate and incubated in the Thermo Lab Systems Fluoroskan plate reader at 37° C. Fluorescence of the cleaved peptide substrate was measured at λex=390 nm and λem=460 nm. All data were collected every five minutes for 2 hour. The total protein used for each assay was 20 μg. The final concentration of Suc-LLVY-AMC and DMSO was 20 μM and 0.2%, respectively. After subtraction of the background (the values from wells containing buffer and substrate in the absence of cell lysate), the activity of test compound was expressed as % inhibition as normalized to the proteasome activity observed in the DMSO treated control cells.

[2] = biological target: caspase-like activity of purified rabbit 20S proteasomes (Oryctolagus cuniculus, UniProt G1T235); assay: In vitro inhibition of caspase-like activity of purified rabbit muscle 20S proteasome (Z-LLE-AMC); assay type: biochemical; details: IC50 Values, purified rabbit 20S proteasome

`C[C@@]12OC(=O)[C@]1([C@@H](O)[C@@H]1C=CCCC1)NC(=O)[C@@H]2CCCl` [XVI-1A, Salinosporamide A] was tested, and the “% inhibition of the 20S proteasome chymotrypsin-like activity in RPMI 8826 cells” value (from here on “% inhibition”) ([1]; fermentation XVI-1A, 1 nM) was 38%, the “% inhibition” value ([1]; fermentation XVI-1A, 5 nM) was 86% and the “% inhibition” value ([1]; fermentation XVI-1A, 10 nM) was 97%. The “inhibition of the 20S proteasome chymotrypsin-like activity on exposure of RPMI 8226 cells” value ([1]; fermentation or synthetic XVI-1A, 1, 5 or 10 nM) was “dose-dependent inhibition”, the “% inhibition” value ([1]; synthetic XVI-1A, 1 nM) was 32% and the “% inhibition” value ([1]; synthetic XVI-1A, 5 nM) was 79%. The “% inhibition” value ([1]; synthetic XVI-1A, 10 nM) was 96%, the IC50 ([2]; XVI-1A obtained by fermentation) was 0.387 µM and the IC50 ([2]; XVI-1A obtained synthetically) was 0.467 µM.
